Results published in patent publication US9187472B2 (AbbVie Inc., priority 2012, dated 2015).

Assays:
[1] = biological target: NAMPT (human, recombinant, C-terminally His-tagged) (Homo sapiens, UniProt P43490); assay: Time-Resolved Fluorescence Resonance Energy Transfer (TR-FRET) Binding Assay of NAMPT; conditions: without substrates; 6.8 nM NAMPT, 200 nM probe, 3 hours equilibration
Protocol: Determination of the utility of compounds having Formula (I) as binders to and inhibitors of NAMPT was performed using Time-Resolved Fluorescence Resonance Energy Transfer (TR-FRET) binding assays.
Time-Resolved Fluorescence Resonance Energy Transfer (TR-FRET) Binding Assay of NAMPT
Test compounds were serially diluted (typically 11 half log dilutions) in neat DMSO to 50× final concentrations prior to dilution with assay buffer (50 mM HEPES (NaOH), pH 7.5, 100 mM NaCl, 10 mM MgCl2, 1 mM DTT, 1% Glycerol) to 3× and 6% DMSO. Six μL were transferred to 384-well low-volume plates (Owens Corning #3673). To this, […] of a 1.5× solution containing enzyme, probe and antibody were added. Final concentrations in the 18 μL, reactions were 1× assay buffer, 2% DMSO, 6.8 nM NAMPT (human, recombinant, C-terminally His-tagged), 200 nM probe (a potent nicotinamide-competitive inhibitor conjugated to Oregon Green 488) and 1 nM Tb-anti-His antibody (Invitrogen # PV5895). Reactions were equilibrated at room temperature for 3 hours prior to reading on an Envision multi-label plate reader (Perkin Elmer; Ex=337 nm, Em=520 and 495 nm). Time-resolved FRET ratios (Em520/Em495) were normalized to controls, plotted as a function of compound concentration and fit with the four-parameter logistic equation to determine IC50s.

NAMPT = NAMPT (Homo sapiens, UniProt P43490); assay: TR-FRET Binding Assay of NAMPT with PRPP; conditions: with 200 μM PRPP and 2.5 mM ATP; 2 nM NAMPT, 2 nM probe, 16 hours equilibration
NAMPT, sequence (P43490 whole entry): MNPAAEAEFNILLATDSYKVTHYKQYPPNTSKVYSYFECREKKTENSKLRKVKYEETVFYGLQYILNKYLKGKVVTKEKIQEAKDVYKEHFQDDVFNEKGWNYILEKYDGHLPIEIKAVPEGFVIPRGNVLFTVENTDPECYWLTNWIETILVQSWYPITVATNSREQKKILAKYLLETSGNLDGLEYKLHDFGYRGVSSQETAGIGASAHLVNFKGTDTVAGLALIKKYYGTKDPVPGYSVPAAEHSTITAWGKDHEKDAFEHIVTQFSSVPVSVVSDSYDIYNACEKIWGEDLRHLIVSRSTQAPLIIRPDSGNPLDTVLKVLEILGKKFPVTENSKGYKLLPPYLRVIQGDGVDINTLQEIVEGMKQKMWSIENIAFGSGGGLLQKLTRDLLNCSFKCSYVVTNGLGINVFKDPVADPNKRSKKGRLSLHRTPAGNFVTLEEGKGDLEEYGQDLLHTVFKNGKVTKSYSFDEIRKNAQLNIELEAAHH
Protocol: Time-Resolved Fluorescence Resonance Energy Transfer (TR-FRET) Binding Assay of NAMPT with PRPP
Compound handling and data processing were identical to the assay in the absence of substrates (above). Final concentrations were 1× assay buffer, 2% DMSO, 2 nM NAMPT, 2 nM probe, 1 nM Tb-anti-His antibody (Invitrogen # PV5895), 200 μM PRPP and 2.5 mM ATP. Reactions were equilibrated for 16 hours prior to measurement to allow for potential enzymatic modification of test compounds.

PC3 cells = assay: NAMPT Cell Proliferation Assay; format: cell-based; conditions: Homo sapiens, PC-3, 120 h, 5 days incubation, cell viability by Cell Titer Glo
Method in brief: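 Seed PC3 at 500 cells/well (RPMI, 10% HI-FBS), attach overnight; add compound, 10-fold series 10 μM → 1×10^−5 μM; incubate 5 d, 37° C/5% CO2; luminescent viability readout; fit % inhibition sigmoidally for IC50.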

NAMPT (human, recombinant, C-terminally His-tagged), sequence (P43490 whole entry): as above

Structure (SMILES) | IC50 [1] | IC50 (NAMPT) | IC50 (PC3 cells)
CC[C@H](C)C(=O)N1CCC(c2ccc(C(=O)NCc3ccn4ccnc4c3)cc2)C1 (stereo partly drawn) [Example 368, N-(imidazo[1,2-a]pyridin-7-ylmethyl)-4-{1-[(2S)-2-methylbutanoyl]pyrrolidin-3-yl}benzamide] | 602 nM | 0.317 nM | 48.4 nM
O=C(NCc1ccn2ccnc2c1)c1ccc(C2CCN(C(=O)C3CCCCC3)C2)cc1 (stereo not shown) [Example 610, 4-[1-(cyclohexylcarbonyl)pyrrolidin-3-yl]-N-(imidazo[1,2-a]pyridin-7-ylmethyl)benzamide] | 751 nM | 0.762 nM | 74.4 nM
O=C(CC1CCOC1)Nc1ccc(NC(=O)Nc2ccc3nccn3c2)cc1 (stereo not shown) [Example 26, N-{4-[(imidazo[1,2-a]pyridin-6-ylcarbamoyl)amino]phenyl}-2-(tetrahydrofuran-3-yl)acetamide] | 211 nM | 1.1 nM | 261 nM
O=C(Nc1ccc(C(=O)NCC2CCCCO2)cc1)Nc1ccc2ncc(Cl)n2c1 (stereo not shown) [Example 396, 4-{[(3-chloroimidazo[1,2-a]pyridin-6-yl)carbamoyl]amino}-N-(tetrahydro-2H-pyran-2-ylmethyl)benzamide] | 22.6 nM | 0.36 nM | 32.4 nM
CC(C)(C)OC(=O)N1CCC(c2ccc(C(=O)NCc3ccn4ccnc4c3)cc2)C1 (stereo not shown) [Example 301, tert-butyl 3-{4-[(imidazo[1,2-a]pyridin-7-ylmethyl)carbamoyl]phenyl}pyrrolidine-1-carboxylate] | 288 nM | 0.301 nM | 25.8 nM
O=C(NCc1ccn2ccnc2c1)c1ccc(C2CCN(C(=O)c3ccc(Cl)cc3)CC2)cc1 [Example 529, 4-[1-(4-chlorobenzoyl)piperidin-4-yl]-N-(imidazo[1,2-a]pyridin-7-ylmethyl)benzamide] | 248 nM | 0.283 nM | 227 nM
O=C(NCc1ccn2ccnc2c1)c1cc(Cl)c(-c2cnn(C[C@H]3CCOC3)c2)s1 [Example 579, 4-chloro-N-(imidazo[1,2-a]pyridin-7-ylmethyl)-5-{1-[(3R)-tetrahydrofuran-3-ylmethyl]-1H-pyrazol-4-yl}thiophene-2-carboxamide] | 488 nM | 0.634 nM | 758 nM
Cn1cc(CCC(=O)N(CC2CCCO2)c2ncc(C(=O)NCc3ccc4nccn4c3)s2)cn1 (stereo not shown) [Example 130, N-(imidazo[1,2-a]pyridin-6-ylmethyl)-2-{[3-(1-methyl-1H-pyrazol-4-yl)propanoyl](tetrahydrofuran-2-ylmethyl)amino}-1,3-thiazole-5-carboxamide] | 53.2 nM | 0.981 nM | 6.55 nM
O=C(NCc1ccn2ccnc2c1)c1ccc(-c2cnn(C3CCOCC3)c2)s1 [Example 410, N-(imidazo[1,2-a]pyridin-7-ylmethyl)-5-[1-(tetrahydro-2H-pyran-4-yl)-1H-pyrazol-4-yl]thiophene-2-carboxamide] | 20.7 nM | 0.169 nM | –
N#Cc1ccsc1C(=O)N1CCC(c2ccc(NC(=O)NCc3ccn4ccnc4c3)cc2)CC1 [Example 1139, 1-(4-{1-[(3-cyanothiophen-2-yl)carbonyl]piperidin-4-yl}phenyl)-3-(imidazo[1,2-a]pyridin-7-ylmethyl)urea] | – | – | 1.41 nM
Cc1ccc(F)c(C(=O)N2CCC(c3ccc(C(=O)NCc4ccn5ccnc5c4)cc3)CC2)n1 [Example 963, 4-{1-[(3-fluoro-6-methylpyridin-2-yl)carbonyl]piperidin-4-yl}-N-(imidazo[1,2-a]pyridin-7-ylmethyl)benzamide] | – | – | 19.5 nM
Cn1ncc2ccc(C(=O)N3CCC(c4ccc(NC(=O)NCc5ccn6ccnc6c5)cc4)CC3)cc21 [Example 1123, 1-(imidazo[1,2-a]pyridin-7-ylmethyl)-3-(4-{1-[(1-methyl-1H-indazol-6-yl)carbonyl]piperidin-4-yl}phenyl)urea] | – | – | 7.11 nM
CC(C)c1nccc(C(=O)N2CCC(c3ccc(C(=O)NCc4ccn5ccnc5c4)cc3)CC2)n1 [Example 1006, N-(imidazo[1,2-a]pyridin-7-ylmethyl)-4-(1-{[2-(propan-2-yl)pyrimidin-4-yl]carbonyl}piperidin-4-yl)benzamide] | – | – | 73.7 nM
O=C(NCc1ccn2ccnc2c1)c1ccc(C2CCN(C(=O)C(CO)c3ccccc3)CC2)cc1 (stereo not shown) [Example 922, 4-[1-(3-hydroxy-2-phenylpropanoyl)piperidin-4-yl]-N-(imidazo[1,2-a]pyridin-7-ylmethyl)benzamide] | – | – | 9.95 nM
N#Cc1ccc(C(=O)N2CCC(c3ccc(NC(=O)NCc4ccn5ccnc5c4)cc3)CC2)s1 [Example 1131, 1-(4-{1-[(5-cyanothiophen-2-yl)carbonyl]piperidin-4-yl}phenyl)-3-(imidazo[1,2-a]pyridin-7-ylmethyl)urea] | – | – | 34.4 nM

More lines, now with the values ahead:

IC50 [1] | IC50 (NAMPT) | IC50 (PC3 cells) | Structure (SMILES)
314 nM | 1.01 nM | 17.6 nM | O=C(NCc1ccn2ccnc2c1)c1ccc(C2=CCN(C(=O)c3ccccc3F)CC2)o1 [Example 803, 5-[1-(2-fluorobenzoyl)-1,2,3,6-tetrahydropyridin-4-yl]-N-(imidazo[1,2-a]pyridin-7-ylmethyl)furan-2-carboxamide]
332 nM | 1.73 nM | 2.44 nM | O=C(NCc1ccc2nccn2c1)c1ccc(C2=CCN(C(=O)C3CCOCC3)CC2)cc1 [Example 101, N-(imidazo[1,2-a]pyridin-6-ylmethyl)-4-[1-(tetrahydro-2H-pyran-4-ylcarbonyl)-1,2,3,6-tetrahydropyridin-4-yl]benzamide]
56.5 nM | 2.4 nM | 40.7 nM | O=C(CC1CCOC1)Nc1ccc(C(=O)NCc2ccc3nccn3c2)cc1 (stereo not shown) [Example 78, N-(imidazo[1,2-a]pyridin-6-ylmethyl)-4-[(tetrahydrofuran-3-ylacetyl)amino]benzamide]
3.67 nM | 0.221 nM | 1.87 nM | O=C(NCc1ccn2ccnc2c1)c1ccc(C2CCN(C(=O)CC3CCOCC3)CC2)s1 [Example 262, N-(imidazo[1,2-a]pyridin-7-ylmethyl)-5-[1-(tetrahydro-2H-pyran-4-ylacetyl)piperidin-4-yl]thiophene-2-carboxamide]
37.7 nM | 0.672 nM | 67.6 nM | O=C(Cc1ccn2ccnc2c1)Nc1ccc(NC(=O)CC2CCCC2)cc1 [Example 739, 2-cyclopentyl-N-{4-[(imidazo[1,2-a]pyridin-7-ylacetyl)amino]phenyl}acetamide]
5.8 nM | – | 5.76 nM | COCCC(=O)N(Cc1ccc(C#N)cc1)c1ncc(C(=O)NCc2ccn3ccnc3c2)s1 [Example 57, 2-[(4-cyanobenzyl)(3-methoxypropanoyl)amino]-N-(imidazo[1,2-a]pyridin-7-ylmethyl)-1,3-thiazole-5-carboxamide]
– | – | 9.96 nM | O=C(NCc1ccc2ncnn2c1)c1ccc(C2CCN(C(=O)c3ccccn3)CC2)s1 [Example 853, 5-[1-(pyridin-2-ylcarbonyl)piperidin-4-yl]-N-([1,2,4]triazolo[1,5-a]pyridin-6-ylmethyl)thiophene-2-carboxamide]
– | – | 2.99 nM | CC1CC(C#N)(C(=O)N2CCC(c3ccc(NC(=O)NCc4ccn5ccnc5c4)cc3)CC2)C1 (stereo not shown) [Example 1127, 1-(4-{1-[(1-cyano-3-methylcyclobutyl)carbonyl]piperidin-4-yl}phenyl)-3-(imidazo[1,2-a]pyridin-7-ylmethyl)urea]
– | – | 30.3 nM | Cc1cc(C(=O)N2CCC(c3ccc(C(=O)NCc4ccn5ccnc5c4)cc3)CC2)cc(Cl)n1 [Example 932, 4-{1-[(2-chloro-6-methylpyridin-4-yl)carbonyl]piperidin-4-yl}-N-(imidazo[1,2-a]pyridin-7-ylmethyl)benzamide]
– | – | 684 nM | N#Cc1cc(C(=O)N2CCC(c3ccc(C(=O)NCc4ccn5ccnc5c4)cc3)CC2)ccc1F [Example 999, 4-[1-(3-cyano-4-fluorobenzoyl)piperidin-4-yl]-N-(imidazo[1,2-a]pyridin-7-ylmethyl)benzamide]
– | – | 6.22 nM | O=C(NCc1ccn2ccnc2c1)c1ccc(C2CCN(C(=O)c3ccnc(Cl)c3F)CC2)cc1 [Example 964, 4-{1-[(2-chloro-3-fluoropyridin-4-yl)carbonyl]piperidin-4-yl}-N-(imidazo[1,2-a]pyridin-7-ylmethyl)benzamide]
– | – | 3.51 nM | Cc1cccc(C(=O)N2CCC(c3ccc(NC(=O)NCc4ccn5ccnc5c4)cc3)CC2)c1O [Example 957, 1-{4-[1-(2-hydroxy-3-methylbenzoyl)piperidin-4-yl]phenyl}-3-(imidazo[1,2-a]pyridin-7-ylmethyl)urea]
